Legend:
Assay type in all cases: in vivo, human
[1] = Case report, Patient A: tolerability of doxycycline; conditions: after two additional months on doxycycline
Source text: (§1) Patient A is a person diagnosed with PD approximately one and a half years earlier and treated with levodopa. […] The patient also experienced intermittent irritable bowel disorder symptoms.

[2] = test system: seborrheic dermatitis; assay: Case report, Patient A: seborrheic dermatitis under doxycycline
Source text: as §1

[3] = test system: PD tremor; assay: Case report, Patient A: PD tremor under doxycycline added to levodopa; conditions: prior to initiation of doxycycline
Source text: as §1

C[C@H]1c2cccc(O)c2C(=O)C2=C(O)[C@]3(O)C(=O)C(C(N)=O)=C(O)[C@@H](N(C)C)[C@@H]3[C@@H](O)[C@@H]21 [doxycycline, Doxycycline]
adverse event leading to stop of treatment [1]: nausea | time to resolution of seborrheic dermatitis ([2]; PD patient on levodopa, doxycycline 100 mg tablet once a day, first course): ≤ 3 weeks | time to recurrence of seborrheic dermatitis after discontinuation ([2]; doxycycline discontinued after approximately 8 weeks (first de-challenge)): ≤ 2 weeks

N[C@@H](Cc1ccc(O)c(O)c1)C(=O)O [levodopa, Levodopa]
interval between required levodopa dose increases (worsening PD, most notably tremor) [3]: ~3 months
